According to patent US20100028892A1, “YEAST BASED EXPRESSION OF PROTEASES AND METHODS OF USE” (Burnham Institute for Medical Research, priority 2008, published 2010):
pIC50: −log10 of the molar value.

Experiments:
Caspase1 = molecular target: T1, Caspase1 (Homo sapiens, UniProt P29466); assay: yeast 384 well β-galactosidase reporter assay, Caspase1 expressed alone; assay type: cell-based; settings: Caspase1 in yeast, 384 well β-galactosidase activity assay
T1 construct: each full-length Caspase construct was expressed (for Caspases-1, 2, 3, 4, 5, 6, 7, and 9) at high levels; FLAG (C); HA (N); expressed in transfected cells; host or cells: Saccharomyces cerevisiae (EGY48)
T1 sequence (P29466 1-404): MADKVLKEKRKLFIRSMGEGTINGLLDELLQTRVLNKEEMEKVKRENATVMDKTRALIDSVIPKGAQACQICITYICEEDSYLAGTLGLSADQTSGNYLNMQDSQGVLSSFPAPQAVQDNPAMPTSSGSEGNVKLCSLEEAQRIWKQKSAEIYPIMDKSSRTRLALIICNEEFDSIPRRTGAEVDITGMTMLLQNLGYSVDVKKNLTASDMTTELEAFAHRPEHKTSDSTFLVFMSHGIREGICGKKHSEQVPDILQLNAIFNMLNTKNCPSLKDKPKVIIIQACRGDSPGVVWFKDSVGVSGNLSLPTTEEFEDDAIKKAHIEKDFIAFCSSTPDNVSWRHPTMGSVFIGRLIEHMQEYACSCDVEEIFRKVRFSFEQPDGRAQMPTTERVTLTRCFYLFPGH
From the text: (§1) When converting the yeast-based protease reporter system to HTS assay, conditions from agar plates to liquid medium in microtiter wells must be revised. This revision comprises, utilizing the measured β-galactosidase produced by yeast carrying the Caspase-cleavable reporter proteins, and assaying the colorimetric product (OD620nm) derived from X-gal substrate in 384 well plates, as a measure of the lacZ reporter gene activity. We compared β-galactosidase activity produced in the presence or absence of the broad-spectrum caspase inhibitory compound, zVAD-fmk ([…]-Valinyl-Alaninyl-Aspartyl-fluoromethylketone). […] Note that it was determined that it is not advisible to employ glucose in yeast media because it represses the GAL1 promoter used in some plasmids. […]
(§2) Yeast expressing various Caspases alone (at high levels) or in combination with upstream activators (at low levels) and cleavable substrates containing appropriate tetrapeptides reorganized by these proteases were used in 384 well β-galactosidase activity assays to assess inhibition by zVAD-fmk. The compound was titrated into assays at various concentrations and percentage inhibition was determined.
(§3) Assays were performed in a total volume of […] in triplicate. […] Absorbance at 620 nm was measured 2-3 days after culture at 30° C.

[1] = molecular target: T2, Caspase1 activated with Asc (Homo sapiens, UniProt P29466); assay: yeast 384 well β-galactosidase reporter assay, Caspase1 activated with Asc; assay type: cell-based; settings: Caspase1 activated with Asc in yeast, 384 well β-galactosidase activity assay
T2 construct: Caspase (all full-length zymogen proforms) expression plasmids; FLAG (C); expressed in transfected cells; host or cells: Saccharomyces cerevisiae (EGY191 or EGY48)
T2 sequence (P29466 120-297 limits assumed): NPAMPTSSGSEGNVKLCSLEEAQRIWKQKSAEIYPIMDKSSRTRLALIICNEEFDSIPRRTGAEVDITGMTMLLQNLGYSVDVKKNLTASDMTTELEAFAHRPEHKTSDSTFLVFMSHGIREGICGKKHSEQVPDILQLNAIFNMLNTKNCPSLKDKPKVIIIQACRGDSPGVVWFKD
T2 sequence (P29466 317-404 limits assumed): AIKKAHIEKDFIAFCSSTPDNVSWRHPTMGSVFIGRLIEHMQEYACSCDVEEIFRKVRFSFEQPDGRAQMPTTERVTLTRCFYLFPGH
From the text: as §1, §2, §3

Caspases = assay: validation of 384 well yeast-based Caspase-dependent lacZ reporter gene assays with pharmacological inhibitors; assay type: cell-based, human
From the text: When converting the yeast-based protease reporter system to HTS assay, conditions from agar plates to liquid medium in microtiter wells must be revised. This revision comprises, utilizing the measured β-galactosidase produced by yeast carrying the Caspase-cleavable reporter proteins, and assaying the colorimetric product (OD620nm) derived from X-gal substrate in 384 well plates, as a measure of the lacZ reporter gene activity. We compared β-galactosidase activity produced in the presence or absence of the broad-spectrum caspase inhibitory compound, zVAD-fmk ([…]-Valinyl-Alaninyl-Aspartyl-fluoromethylketone). Among the variables that were initially interrogated were initial seeding cell density, time of culture, concentration of X-gal substrate, and supporting carbohydrate (raffinose vs mannose). Note that it was determined that it is not advisible to employ glucose in yeast media because it represses the GAL1 promoter used in some plasmids. An example of data obtained using the plural-component system of Fas/FADD/Caspase-8 is presented. All variables tested altered the signal:noise ratio of the assay. […] For the two-component system of ASC/Caspase-1 and for the plural-component system of NALP1ΔLRR/ASC/Caspase-1, the same conditions were optimal, among those tested (not shown). For the Fas/Fadd/Caspase 8, the caspase and adaptor protein (Fadd) were expressed at relatively small amounts (a weak promoter and low copy number plasmid are used) and the upstream activator (Fas) was expressed in a large amount.
The 384 well assay format was further validated, using zVAD-fmk, a peptidyl inhibitor with broad-spectrum activity against animal Caspases. […]
The validation results of a yeast-based Caspase assay using a pharmacological inhibitor of Caspases are shown in FIG. 11 consisting of FIGS. 11A-C (A) Caspase-1, single-component assay. […] For (A-C), relative absorbance at 620 nm was measured (mean ±std dev; n=3-5 independent experiments). […]
as §3

[2] = molecular target: T3, Caspase8 activated with FADD + Fas (Homo sapiens, UniProt Q14790); assay: yeast 384 well β-galactosidase reporter assay, Caspase8 activated with FADD + Fas; assay type: cell-based; settings: Caspase8 activated with FADD + Fas in yeast, 384 well β-galactosidase activity assay
T3 construct: a small amount of each full-length Caspase construct was expressed with a large amount of adaptor protein FADD; HA (C); expressed in transfected cells; host or cells: Saccharomyces cerevisiae EGY48
From the text: as §1, §2, §3

T3 sequence (Q14790 217-374 limits assumed): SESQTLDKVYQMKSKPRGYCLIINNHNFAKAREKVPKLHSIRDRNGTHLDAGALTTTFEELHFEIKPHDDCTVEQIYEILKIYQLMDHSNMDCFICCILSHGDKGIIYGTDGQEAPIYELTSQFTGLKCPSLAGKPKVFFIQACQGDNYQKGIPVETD
T3 sequence (Q14790 385-479 limits assumed): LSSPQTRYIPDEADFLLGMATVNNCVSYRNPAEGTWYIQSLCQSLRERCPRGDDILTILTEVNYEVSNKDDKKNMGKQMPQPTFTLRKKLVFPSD

benzoyl-Valinyl-Alaninyl-Aspartyl-fluoromethylketone [zVAD-fmk]
pIC50 (Caspase1): 5.51 | pIC50 [1]: 6.00 | effect on β-galactosidase activity / activation of the lacZ reporter gene (Caspases; 384 well yeast-based Caspase-dependent reporter gene assay): inhibited β-galactosidase activity in a dose-dependent fashion | pIC50 (Caspases; range over the yeast-based Caspase assays, 384 well format, read-out: concentration required for achieving 50% inhibition of β-galactosidase activity): 5.00 to 6.00 | pIC50 [2]: 5.27
